# Laboratory results from patent publication US11078202B2, “β-lactamase inhibitor and use thereof” (priority 2018, dated 2021).
# Counter-ions that a name gives are not always drawn.
# Columns and labels:
# Format in all cases: cell-based
# [1] = system: Escherichia coli XNWB 0010; assay: MIC assay of test compounds combined with ampicillin (8 μg/mL); conditions: ampicillin 8 μg/mL fixed
# Procedure: (§1) The bacterial strains used for the minimum inhibitory concentration (MIC) test were frozen in a −80° C. ULT freezer and thawed 2 days before use. A small amount of frozen bacterial strains were scraped using a sterile inoculating loop, streaked onto a TSA solid culture dish for inoculation, and then cultured for 20-24 h at 35±2° C. in a normal atmospheric environment.
# (§2) 5-10 colonies with similar morphology were picked from the culture dish using a sterile inoculating loop and then re-streaked onto a suitable solid culture dish. Then the dish was placed into a normal incubator for culture for 20-24 h at 35±2° C.
# (§3) 5-10 single bacterial colonies were picked from the solid culture dish, resuspended in 500 μL of 0.9% NaCl, and adjusted to an OD600 of 0.1-0.15 with a spectrophotometer.
# (§4) The bacteria were then diluted 300-fold with 1.1×CAMHB.
# (§5) Test compounds of columns A-H: having a highest final test concentration of 64 μg/mL or 32 μg/mL, 2-fold diluted.
# (§6) Dilution of test compounds: All test compounds were dissolved and diluted in dimethylsulfoxide (DMSO). 170 μL of 3.2 mg/mL (50*64 μg/mL) compound was transferred to wells (A1-H1) of column 1 of a dilution master plate and then 85 μL of DMSO was transferred to wells of other columns. Each compound was diluted 2-fold in sequence (i.e., 85 μL of compound was pipetted from column 1 into column 2 and mixed uniformly, 85 μL of compound was pipetted from column 2 into column 3 and mixed uniformly, then 85 μL of compound was pipetted from column 3 into column 4 and mixed uniformly, and so on until the dilution was done in column 11).
# (§7) Preparation of an additive of ampicillin: Ampicillin was dissolved in ddH2O. 30 μL of 100 μg/mL (12.5×8 μg/mL) ampicillin was transferred to columns 1-11 of an additive plate, followed by the addition of 30 μL of ddH2O to column 12.
# (§8) 2 μL of each compound in the dilution master plate of the test compounds was transferred to the corresponding well of the assay plates. In the mean time, 2 μL of 100% DMSO was transferred to the compound-free wells (GC and SC wells). (1) 8 μL of imipenem in the additive plate of imipenem was transferred to the corresponding wells of the assay plates; (2) 8 μL of ceftazidime in the additive plate of ceftazidime was transferred to the corresponding wells of the assay plates; (3) 8 μL of ampicillin in the additive plate of ampicillin was transferred to the corresponding wells of the assay plates.
# (§9) 90 μL of corresponding bacterial inocula were added to wells (except for SC wells) of the assay plates.
# (§10) After addition, the 6 assay plates were covered by sterile covers. The mixtures in the assay plates were centrifuged by a centrifuge at 1000 rpm for 30 s, and mixed uniformly by oscillating with a microplate oscillator at 800 rpm for 1 min, and then cultured in a common incubator for 16-20 h at 35±2° C.
# (§11) The minimum inhibitory concentration of each compound was recorded by reference to guidelines from the Clinical and Laboratory Standards Institute.
# (§12) The minimum inhibitory concentrations of the compounds of the present invention and antibiotics (imipenem, ceftazidime, and ampicillin) against 11 strains of bacteria were tested in this study by reference to the medium microdilution method as indicated by the Clinical and Laboratory Standards Institute. The effect of the test compounds in combination with imipenem, ceftazidime, and ampicillin was also tested. Compounds were diluted two-fold in 96-well plates from the highest detection concentration of 64 μg/mL. The test compounds were tested in combination with a fixed concentration of imipenem (4 μg/mL), ceftazidime (8 μg/mL), and ampicillin (8 μg/mL). The bacterial inocula in the assay plates were resuscitated from TSA and diluted in CAMHB, while growth controls (GC wells) and sterile controls (SC wells) were set up in the assay plates. […]
# [2] = system: Escherichia coli XNWB 0009; assay: as above; conditions: ampicillin 8 μg/mL fixed
# Procedure: as §1, §2, §3, §4, §5, §6, §7, §8, §9, §10, §11, §12
# [3] = system: Enterobacter aerogenes XNWB 0011; assay: as above; conditions: ampicillin 8 μg/mL fixed
# Procedure: as §1, §2, §3, §4, §5, §6, §7, §8, §9, §10, §11, §12
# [4] = system: Klebsiella pneumoniae XNWB 0003; assay: MIC assay of test compounds combined with imipenem (4 μg/mL); conditions: imipenem 4 μg/mL fixed
# Procedure, shortened: (§13)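 Inoculum: TSA-grown colonies (35±2 °C, 20-24 h, subcultured once), NaCl 0.9% suspension at OD600 0.1-0.15, then 300× dilution into 1.1×CAMHB. Serial compound dilutions with the partner antibiotic at a fixed level; ambient-air incubation 16-20 h, 35±2 °C; CLSI-based MIC readout.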
# [5] = system: Pseudomonas aeruginosa XNWB 0008; assay: as above; conditions: imipenem 4 μg/mL fixed
# Procedure, shortened: as §13
# [6] = system: Klebsiella pneumoniae XNWB 0006; assay: as above; conditions: imipenem 4 μg/mL fixed
# Procedure, shortened: as §13
# [7] = system: Klebsiella pneumoniae XNWB 0001; assay: as above; conditions: imipenem 4 μg/mL fixed
# Procedure, shortened: as §13
# [8] = system: Acinetobacter baumannii XNWB 0007; assay: as above; conditions: imipenem 4 μg/mL fixed
# Procedure, shortened: as §13
# [9] = system: Klebsiella pneumoniae XNWB 0002; assay: as above; conditions: imipenem 4 μg/mL fixed
# Procedure, shortened: as §13
# [10] = system: Klebsiella pneumoniae XNWB 0005; assay: as above; conditions: imipenem 4 μg/mL fixed
# Procedure, shortened: as §13
# [11] = system: Klebsiella pneumoniae XNWB 0004; assay: as above; conditions: imipenem 4 μg/mL fixed
# Procedure, shortened: as §13
# [12] = system: Klebsiella pneumoniae XNWB 0003; assay: MIC assay of test compounds combined with ceftazidime (8 μg/mL); conditions: ceftazidime 8 μg/mL fixed
# Procedure, shortened: as §13
# [13] = system: Pseudomonas aeruginosa XNWB 0008; assay: as above; conditions: ceftazidime 8 μg/mL fixed
# Procedure, shortened: as §13
# [14] = system: Klebsiella pneumoniae XNWB 0006; assay: as above; conditions: ceftazidime 8 μg/mL fixed
# Procedure, shortened: as §13
# [15] = system: Klebsiella pneumoniae XNWB 0001; assay: as above; conditions: ceftazidime 8 μg/mL fixed
# Procedure, shortened: as §13
# [16] = system: Acinetobacter baumannii XNWB 0007; assay: as above; conditions: ceftazidime 8 μg/mL fixed
# Procedure, shortened: as §13
# [17] = system: Klebsiella pneumoniae XNWB 0002; assay: as above; conditions: ceftazidime 8 μg/mL fixed
# Procedure, shortened: as §13
# [18] = system: Klebsiella pneumoniae XNWB 0005; assay: as above; conditions: ceftazidime 8 μg/mL fixed
# Procedure, shortened: as §13
# [19] = system: Klebsiella pneumoniae XNWB 0004; assay: as above; conditions: ceftazidime 8 μg/mL fixed
# Procedure, shortened: as §13
SMILES,The minimum concentration of test compounds combined with ampicillin (8 μg/mL) for bacteriostasis [1],The minimum concentration of test compounds combined with ampicillin (8 μg/mL) for bacteriostasis [2],The minimum concentration of test compounds combined with ampicillin (8 μg/mL) for bacteriostasis [3],The minimum concentration of test compounds combined with imipenem (4 μg/mL) for bacteriostasis [4],The minimum concentration of test compounds combined with imipenem (4 μg/mL) for bacteriostasis [5],The minimum concentration of test compounds combined with imipenem (4 μg/mL) for bacteriostasis [6],The minimum concentration of test compounds combined with imipenem (4 μg/mL) for bacteriostasis [7],The minimum concentration of test compounds combined with imipenem (4 μg/mL) for bacteriostasis [8],The minimum concentration of test compounds combined with imipenem (4 μg/mL) for bacteriostasis [9],The minimum concentration of test compounds combined with imipenem (4 μg/mL) for bacteriostasis [10],The minimum concentration of test compounds combined with imipenem (4 μg/mL) for bacteriostasis [11],The minimum concentration of test compounds combined with ceftazidime (8 μg/mL) for bacteriostasis [12],The minimum concentration of test compounds combined with ceftazidime (8 μg/mL) for bacteriostasis [13],The minimum concentration of test compounds combined with ceftazidime (8 μg/mL) for bacteriostasis [14],The minimum concentration of test compounds combined with ceftazidime (8 μg/mL) for bacteriostasis [15],The minimum concentration of test compounds combined with ceftazidime (8 μg/mL) for bacteriostasis [16],The minimum concentration of test compounds combined with ceftazidime (8 μg/mL) for bacteriostasis [17],The minimum concentration of test compounds combined with ceftazidime (8 μg/mL) for bacteriostasis [18],The minimum concentration of test compounds combined with ceftazidime (8 μg/mL) for bacteriostasis [19]
"N=C(N)NCC1(c2nnc([C@@H]3CC4(CC4)[C@@H]4CN3C(=O)N4OS(=O)(=O)O)o2)CC1 [Example 13, (1R,4S)-4-(5-(1-(guanidinomethyl)cyclopropyl)-1,3,4-oxadiazol-2-yl)-6-oxo-5,7-diazaspiro[bicyclo[3.2.1]octane-2,1′-cyclopropan]-7-yl sulfate]",A (A: <8 μg/mL),A (A: <8 μg/mL),A (A: <8 μg/mL),A (A: <8 μg/mL),A (A: <8 μg/mL),A (A: <8 μg/mL),A (A: <8 μg/mL),C (C: 16-128 μg/mL),A (A: <8 μg/mL),A (A: <8 μg/mL),A (A: <8 μg/mL),A (A: <8 μg/mL),B (B: 8-16 μg/mL),A (A: <8 μg/mL),A (A: <8 μg/mL),B (B: 8-16 μg/mL),A (A: <8 μg/mL),A (A: <8 μg/mL),B (B: 8-16 μg/mL)
"O=C1N2C[C@H](N1OS(=O)(=O)O)C1(CC1)C[C@H]2c1nnc(CNC2CNC2)o1 [Example 14, (1R,4S)-4-(5-((azetidin-3-ylamino)methyl)-1,3,4-oxadiazol-2-yl)-6-oxo-5,7-diazaspiro [bicyclo[3.2.1]octane-2,1′-cyclopropan]-7-yl sulfate]",4 µg/mL,A (A: <8 μg/mL),B (B: 8-16 μg/mL),A (A: <8 μg/mL),B (B: 8-16 μg/mL),A (A: <8 μg/mL),A (A: <8 μg/mL),C (C: 16-128 μg/mL),A (A: <8 μg/mL),A (A: <8 μg/mL),A (A: <8 μg/mL),B (B: 8-16 μg/mL),C (C: 16-128 μg/mL),A (A: <8 μg/mL),A (A: <8 μg/mL),C (C: 16-128 μg/mL),A (A: <8 μg/mL),B (B: 8-16 μg/mL),B (B: 8-16 μg/mL)
"NCCc1cc([C@@H]2CC3(CC3)[C@@H]3CN2C(=O)N3OS(=O)(=O)O)no1 [Example 41, (1R,4S)-4-(5-(2-aminoethyl)isoxazol-3-yl)-6-oxo-5,7-diazaspiro[bicyclo[3.2.1]octane-2,1′-cyclopropan]-7-yl sulfate]",A (A: <8 μg/mL),A (A: <8 μg/mL),B (B: 8-16 μg/mL),A (A: <8 μg/mL),A (A: <8 μg/mL),A (A: <8 μg/mL),A (A: <8 μg/mL),C (C: 16-128 μg/mL),A (A: <8 μg/mL),A (A: <8 μg/mL),A (A: <8 μg/mL),A (A: <8 μg/mL),C (C: 16-128 μg/mL),A (A: <8 μg/mL),A (A: <8 μg/mL),C (C: 16-128 μg/mL),A (A: <8 μg/mL),A (A: <8 μg/mL),B (B: 8-16 μg/mL)
